Test results published in the supplement of paper PMC8671470.
± gives the standard deviation of the averaged measurements.

Test system: HL-60
Test: cell viability (% survival relative to DMSO control); higher = less cytotoxic
Conditions: 72 h
Procedure, shortened: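 A rescreen of the full library used HL-60 cells in RPMI 1640 with 10% FBS on 384-well plates, run in duplicate at five tenfold concentrations (1–10,000 nM). Each screen included DMSO or 100 nM of one of three metabolic inhibitors and ran 72 h at 37 °C, 5% CO2. CellTiter-Glo viability was scaled between DMSO and 10 μM proteasome-inhibitor wells. Any area under the curve comes from four-parameter log-logistic fits with drc and PharmacoGx.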

[1] = 0.001 µM, co-treatment: AZD3965 100 nM
[2] = 0.001 µM, co-treatment: DMSO vehicle
[3] = 0.001 µM, co-treatment: GSK2194069 100 nM
[4] = 0.001 µM, co-treatment: pictilisib 100 nM
[5] = 0.01 µM, co-treatment: AZD3965 100 nM
[6] = 0.01 µM, co-treatment: DMSO vehicle
[7] = 0.01 µM, co-treatment: GSK2194069 100 nM
[8] = 0.01 µM, co-treatment: pictilisib 100 nM
[9] = 0.1 µM, co-treatment: AZD3965 100 nM
[10] = 0.1 µM, co-treatment: DMSO vehicle
[11] = 0.1 µM, co-treatment: GSK2194069 100 nM
[12] = 0.1 µM, co-treatment: pictilisib 100 nM
[13] = 1 µM, co-treatment: AZD3965 100 nM
[14] = 1 µM, co-treatment: DMSO vehicle
[15] = 1 µM, co-treatment: GSK2194069 100 nM
[16] = 1 µM, co-treatment: pictilisib 100 nM
[17] = 10 µM, co-treatment: AZD3965 100 nM
[18] = 10 µM, co-treatment: DMSO vehicle
[19] = 10 µM, co-treatment: GSK2194069 100 nM
[20] = 10 µM, co-treatment: pictilisib 100 nM

Row | Structure (SMILES) | cell viability [1] | cell viability [2] | cell viability [3] | cell viability [4] | cell viability [5] | cell viability [6] | cell viability [7] | cell viability [8] | cell viability [9] | cell viability [10] | cell viability [11] | cell viability [12] | cell viability [13] | cell viability [14] | cell viability [15] | cell viability [16] | cell viability [17] | cell viability [18] | cell viability [19] | cell viability [20]
1 | Cl.OC[C@H]1NC[C@@H](O)[C@@H](O)[C@@H]1O [1-Deoxymannojirimycin hydrochloride] | 100 ± 3.4% | 99 ± 15% | 94.8 ± 6.3% | 95 ± 18% | 99.9 ± 6.2% | 107 ± 2.2% | 90.2 ± 12% | 99.8 ± 5% | 101 ± 1.6% | 100 ± 1.1% | 93.66 ± 0.51% | 102 ± 2.5% | 101.8 ± 0.31% | 106 ± 1.2% | 101 ± 9% | 111.2 ± 1% | 101 ± 5.8% | 95.9 ± 2.1% | 86.6 ± 3% | 104 ± 6.5%
2 | CCOC(=O)[C@@]1(CCCCCCOc2ccc(Cl)cc2)CO1 [Etomoxir] | 102.9 ± 0.64% | 103 ± 1.2% | 106 ± 3.9% | 100 ± 5.9% | 84.3 ± 34% | 99.54 ± 0.17% | 92 ± 16% | 80.2 ± 27% | 106 ± 3.8% | 102 ± 3.4% | 103.8 ± 0.98% | 113 ± 5% | 87.5 ± 11% | 86.5 ± 21% | 77.9 ± 16% | 102 ± 3.8% | 109 ± 1.6% | 106 ± 1.7% | 100 ± 6.6% | 98 ± 6.5%
3 | O=C(O)c1cc2sccc2[nH]1 [4H-thieno[3,2-b]pyrrole-5-carboxylic acid] | 96.3 ± 5.8% | 101.92 ± 0.033% | 99.1 ± 7.8% | 109 ± 14% | 101 ± 5.4% | 101 ± 2.9% | 100.5 ± 0.55% | 94.5 ± 6.3% | 94.6 ± 11% | 103 ± 7.1% | 101.3 ± 0.73% | 97.3 ± 4.2% | 76.4 ± 8.7% | 97.47 ± 0.64% | 90.2 ± 1.1% | 84.3 ± 7.3% | 104 ± 11% | 104 ± 3.8% | 100 ± 9.4% | 99.3 ± 9.8%
4 | CCCc1nn(C)c2c(O)nc(-c3cc(S(=O)(=O)N4CCN(C)CC4)ccc3OCC)nc12 [Sildenafil] | 104 ± 6.6% | 88.1 ± 13% | 91.3 ± 6.8% | 79.6 ± 40% | 99.2 ± 1.4% | 98.4 ± 4.1% | 96.77 ± 0.75% | 102 ± 7.1% | 104.5 ± 0.69% | 106 ± 5.1% | 123 ± 12% | 117 ± 10% | 99.4 ± 4.6% | 103 ± 2.1% | 97.06 ± 0.92% | 93.6 ± 18% | 99.89 ± 0.83% | 102 ± 2.9% | 93 ± 1.7% | 94.7 ± 7.5%
5 | CN(C)c1nc(O)c2[nH]cnc2n1 [2-Dimethylamino-6-hydroxypurine] | 98.9 ± 2.2% | 99.5 ± 1.3% | 98.8 ± 1.3% | 101 ± 8% | 97.93 ± 0.42% | 103 ± 8.9% | 110 ± 20% | 105 ± 3% | 100 ± 2.5% | 96.5 ± 1.1% | 92.4 ± 1.2% | 102.5 ± 0.56% | 97.6 ± 3% | 88.1 ± 12% | 104 ± 12% | 114 ± 16% | 101.2 ± 0.26% | 102 ± 4.7% | 108 ± 16% | 99 ± 9.8%
6 | CC(C)C[C@H](NC(=O)[C@@H](O)[C@H](N)Cc1ccccc1)C(=O)O [Ubenimex] | 101 ± 4.3% | 104 ± 3.4% | 102 ± 3.6% | 99.1 ± 1.1% | 101 ± 11% | 103 ± 1.4% | 95.6 ± 11% | 93.2 ± 11% | 99.3 ± 9.9% | 102 ± 3.4% | 107 ± 2% | 104 ± 7.1% | 98.1 ± 2.2% | 97.6 ± 5.8% | 94 ± 4.7% | 79.3 ± 1.4% | 106 ± 2% | 95.3 ± 1.6% | 103 ± 5.7% | 98.8 ± 3.3%
7 | O=C1Oc2ccccc2C(=O)C1CC1C(=O)Oc2ccccc2C1=O (stereo not given) [Dicumarol] | 101 ± 6% | 104 ± 3.1% | 122 ± 4.6% | 103 ± 4.7% | 73.3 ± 30% | 102 ± 6.2% | 62.5 ± 23% | 91 ± 15% | 100 ± 3.5% | 100 ± 1.2% | 95.5 ± 1.2% | 103 ± 9% | 101 ± 5.3% | 100 ± 8.3% | 98.8 ± 5.7% | 102 ± 11% | 97.7 ± 4% | 99.1 ± 4.8% | 85 ± 7% | 92.1 ± 5%
8 | O=C(c1ccc(OCCN2CCCCC2)cc1)c1c(-c2ccc(O)cc2)sc2cc(O)ccc12 [Raloxifene] | 93 ± 9.2% | 85.9 ± 11% | 79.1 ± 13% | 104.6 ± 0.91% | 91.9 ± 19% | 80.4 ± 24% | 80.5 ± 22% | 94.1 ± 9% | 98 ± 1.4% | 101 ± 2.3% | 93.3 ± 1.2% | 99.7 ± 8.1% | 101 ± 8.2% | 97.14 ± 0.84% | 87.1 ± 23% | 105 ± 2.5% | 100.7 ± 0.99% | 101 ± 1.9% | 70.9 ± 18% | 113 ± 9.9%
9 | Cc1coc2c1C(=O)C(=O)c1c-2ccc2c(C)cccc12 [Tanshinone I] | 100.1 ± 0.2% | 97.288 ± 0.063% | 94.6 ± 6.6% | 97.1 ± 5.6% | 101 ± 1.8% | 103 ± 6.3% | 103.8 ± 0.31% | 104 ± 3.1% | 104 ± 9.7% | 101.8 ± 0.9% | 108 ± 12% | 101 ± 0.32% | 104 ± 1.6% | 103.5 ± 0.31% | 102 ± 4.4% | 103.6 ± 0.57% | 100.3 ± 0.27% | 97.2 ± 5.3% | 101 ± 1.4% | 106 ± 9.7%
10 | c1ccc2c(c1)OCC(=C1NCCN1)O2 [Idazoxan] | 103 ± 1.6% | 99.03 ± 0.46% | 99.9 ± 1.9% | 104 ± 1.9% | 98 ± 3.2% | 101.2 ± 0.3% | 101 ± 1.7% | 102 ± 1.5% | 102 ± 3.3% | 100.8 ± 0.84% | 101.2 ± 0.31% | 93 ± 1.3% | 96 ± 5.5% | 101 ± 1.5% | 98.4 ± 4.8% | 95.1 ± 1.4% | 100 ± 2.2% | 98.4 ± 3.7% | 99.15 ± 0.27% | 98.7 ± 9.1%
11 | CC(/C=C1\SC(=S)N(CC(=O)O)C1=O)=C\c1ccccc1 [Epalrestat] | 102 ± 1.1% | 100 ± 6.5% | 102 ± 5.9% | 92 ± 4.1% | 64.9 ± 48% | 79.3 ± 39% | 79.1 ± 29% | 75.1 ± 35% | 105.5 ± 0.65% | 102 ± 4% | 109 ± 3.6% | 97.1 ± 7.8% | 101.8 ± 0.5% | 100.82 ± 0.007% | 107.58 ± 0.028% | 95.4 ± 13% | 87.6 ± 2.7% | 94.16 ± 0.38% | 94.2 ± 4.2% | 88.6 ± 2.3%
12 | C1CCc2nnc(C34CC5CC(CC(C5)C3)C4)n2CC1 [MERCK-544] | 103 ± 3% | 98.4 ± 1.3% | 105 ± 1.7% | 97 ± 1.1% | 103.1 ± 0.36% | 103 ± 2.8% | 108 ± 2% | 109 ± 8.3% | 99.41 ± 0.58% | 98.1 ± 2.4% | 99.8 ± 1.6% | 96.63 ± 0.71% | 100.6 ± 0.51% | 99.7 ± 1.4% | 96.27 ± 0.66% | 95.52 ± 0.25% | 108 ± 2% | 101 ± 2.6% | 109 ± 5.7% | 102 ± 10%
